# Like-named read-outs stand apart in the source and are kept apart here.
# Columns and labels:
# [1] = system: T. cruzi amastigotes; experiment: Antiamastigote assay (T. cruzi), ex vivo intracellular model using mice macrophages, microscopy; assay type: cell-based, Trypanosoma (T.) cruzi; conditions: Trypanosoma cruzi, Peritoneal macrophage, 48 h, ± SD, read-out: T. cruzi IC50 amastigotes
# Description: (§1) T. cruzi also assumes several cell morphologies during its lifecycle, which differ between the insect vector and mammalian host. In the latter environment, the parasite transitions between extracellular bloodstream trypomastigotes and intracellular amastigotes; both forms are clinically relevant, particularly during the acute stage of Chagas disease.[34] In this work, antitrypanosomal activity was tested against both the amastigote form (evaluated microscopically using an ex vivo intracellular model using mice macrophages) and the trypomastigote form (using the resazurin in vitro assay).[33],[35] […] In silico predictions of pharmacokinetic profiles were carried out using the SwissADME webtool (see the Supporting Information for details).[36] […]
# (§2) […] Cultivation was performed in 2% fetal calf serum supplemented RPMI-1640 medium.
# (§3) The trypomastigotes were maintained in a humidified incubator at 37 °C and with 5% CO2. […]
# (§4) Peritoneal macrophages were obtained via washing the peritoneal cavity of BALB/c mice with 10% foetal calf serum supplemented RPMI-1640 medium (pH 7.2). The macrophages were maintained in a humidified incubator at 37 °C and with 5% CO2.
# (§5) Biological activity assays […]
# Peritoneal macrophages (1 × 10^5 cells/well) obtained from the peritoneal cavity of BALB/C mice were added to 16-well chambers (NUNC, Thermo Fischer Scientific). The cells were infected with trypomastigotes (10:1 parasites/macrophage) for 2 h. Then treatment of the infected macrophages with selected compounds (serially diluted 1.2 to 100 μM) was performed in a humidified incubator for 48 h at 37 °C and with 5% CO2. The treated cells were fixed on slides using methanol, stained with Giemsa and observed under a light microscope (EVOS M5000, Thermo, USA) with digital image equipment. The infection index was used in order to determine the half inhibitory concentration (IC50) (no. infected macrophages × no. amastigotes / total no.
# [2] = system: L. infantum promastigotes; experiment: Antipromastigote assay (L. infantum), MTT colorimetric; assay type: cell-based, Leishmania (L.) infantum; conditions: 48 h; for IC50: Leishmania infantum, read-out: L. infantum IC50 promastigotes
# Description: (§6) Table 1 depicts the antileishmanial (L. infantum) activity evaluation performed against both the amastigote form (evaluated microscopically using an ex vivo intracellular model of mice macrophages) and the promastigote one (using an MTT colorimetric method).[32],[33] The cytotoxicity was evaluated against NCTC cells using an MTT colorimetric method and the selectivity index was determined using the ratio between the CC50 values (NCTC cells) and the IC50 values (amastigotes).[32] […] With respect to the substituents on the C ring, larger, hydrophobic groups conferred greater bioactivity (e.g., 9b–d), whereas small, hydrophilic groups such as a hydroxyl group afford modest to poor bioactivity.
# (§7) Leishmania (L.) infantum (MHOM/BR/1972/LD) amastigotes were obtained from golden hamsters (Mesocricetus auratus) spleens following 60-70 days of infection via differential centrifugation. The Stauber method was used to determine the number of parasites.12 […]
# Biological activity assays
# Antipromastigote Assay (L. infantum)
# L. infantum promastigotes (1 × 10^6 cells/well) were added to a 96-well plates. Treatment of the cells with selected compounds (serially diluted 0.14 to 200 μM) was performed in M199 medium supplemented with 0.25% hemin and 10% fetal bovine serum for 48 h at 24 °C. The MTT colorimetric assay was used to determine the activity (IC50) of the compounds. Miltefosine was used as a standard drug and untreated promastigotes were used as a negative control. The half inhibitory concentration (IC50) was determined from a sigmoidal regression of the concentration-response curves generated in GraphPadPrism7. […]
# [3] = Mammalian toxicity, MTT colorimetric; assay type: cell-based, murine; conditions: mouse
# Description: as §6, with “bioactivity. […]” for “bioactivity.”
# Murine conjunctive fibroblasts NCTC clone 929 (ATCC) were maintained in 10% foetal calf serum supplemented RPMI-1640 medium (pH 7.2) at 37 °C in a humidified incubator with 5% CO2. […]
# as §5
# NCTC cells (6 × 10^4/well) were added to a 96-well plate. Treatments of the cells with selected compounds (serially diluted 1.5 to 200 μM) was performed in a humidified incubator for 96 h at 37 °C and with 5% CO2.
# The MTT colorimetric method was used to determine the 50% cytotoxic concentration (CC50) and the selectivity index (CC50 against NCTC cells/IC50 against amastigotes).15 […]
# […] At 6 h and 24 h post-treatment, a 1 mL aliquot was taken for imaging. The cell cycle experiment was preformed twice independently.
# Generation of mNG::RAD51 tagged cell line
# The single-stranded DNA-binding protein RAD51, associated with DNA Repair, LmxM.28.0550 was tagged with endogenous fluorescent protein mNeonGreen (mNG) at the N-terminus. […]
# Primers for constructs and sgRNA were designed using LeishGEdit (http://www.leishGEdit.net).
# PCR was at 94 °C for 5 min, followed by 35 cycles at 94 °C (15 sec), 65 °C (15 sec), 72 °C (2 min) then finally 72 °C (1 min).
# PCR was at 94 °C for 30 sec, followed by 30 cycles at 94 °C (30 sec), 60 °C (30 sec), 72 °C (30 sec) then finally 72 °C (2 min). […] Combined PCR products were precipitated for 20 min with 10 μL 3M sodium acetate and 300 μL EtOH, pelleted at 14000 min-1 30 min, washed once with 70% EtOH, re-pelleted and resuspended in […]
# Promastigotes (1 × 10^7 cells) were combined with PCR products and transfected using the Amaxa Nucleofector II.17 Electroporation was performed using 2 mm cuvettes on the X-100 program, followed by immediate suspension in pre-warmed M199 medium. Successful transfectants were selected with 20 μg mL-1 Puromycin 15 h after transfection, taking 4 days to reach stable growth in culture. mNG::RAD51 nuclear foci studies mNG::RAD51 promastigotes (5 × 10^6 cells mL-1) in 7 mL of M199 medium were treated with 7 μL o f compound (S)-9a or (S)-9b dissolved in DMSO giving a final concentration of 50 μM. Phleomycin was used as a positive control at a final concentration of 25 μg mL-1. At T = 0, 15, 30, 60 min, and 2, 6, 24 h post-treatment a 0.8 mL aliquot was taken for imaging.
# [4] = system: L. infantum amastigotes; experiment: Antiamastigote assay (L. infantum), ex vivo intracellular model of mice macrophages, microscopy; assay type: cell-based, Leishmania (L.) infantum; conditions: 96 h, read-out: L. infantum IC50 amastigotes
# Description: as §6, §7, §4, §5
# Antiamastigote Assay (L. infantum)
# Peritoneal macrophages (1 × 10^5/well) were added to a 16-well slide chambers (NUNC) and incubated with 5% CO2 at 37 °C. The cells were subsequently infected with L. infantum amastigotes (10:1 amastigotes/macrophage) for 24 h. Treatment of the cells with selected compounds (serially diluted 1.2 to 150 μM) was performed in a humidified incubator for 96 h at 37 °C and with 5% CO2. Untreated cells were used as a negative control and miltefosine was used as a standard drug. The treated cells were fixed on slides with methanol, stained with Giemsa and observed under a light microscope.13 The infection index was used in order to determine the half inhibitory concentration (IC50) (no. infected macrophages × no. amastigotes / total no. […]
# [5] = system: T. cruzi trypomastigotes; experiment: Antitrypomastigote assay (T. cruzi), resazurin; assay type: cell-based, Trypanosoma (T.) cruzi; conditions: 24 h, read-out: T. cruzi IC50 trypomastigotes
# Description: as §1, §2, §3, §5
# The half inhibitory concentration (IC50) was determined from a sigmoidal regression of the concentration-response curves generated in GraphPadPrism7. […]
# Treatment of the cells with selected compounds (serially diluted 1.2 to 150 μM) was performed in a humidified incubator in RPMI 1640 medium for 24 h at 37 °C and with 5% CO2. Resazurin (0.011% in PBS) was added subsequently to verify parasite viability. Benznidazole was used as a standard drug. The optical density was determined at 570 nm using the FilterMax F5 (Molecular Devices). […]
# [6] = Leishmania infantum, Peritoneal macrophage, ± SD, intracellular, peritoneal macrophages
# [7] = Trypanosoma cruzi, ± SD, resazurin
IC50 [1],"IC50 ([2]; ± SD, MTT)","IC50 [4, 6]","IC50 [5, 7]","IC50 ([5]; ± SD, resazurin)","IC50 ([4]; ± SD, intracellular, peritoneal macrophages)","L. infantum IC50 promastigotes ([2]; ± SD, MTT)",Compound,CC50 at 96 h [3],IC50 [2],"CC50 at 96 h ([3]; ± SD, NCTC cells, MTT, 96 h, read-out: CC50)","IC50 ([4]; Leishmania infantum, Peritoneal macrophage)",IC50 ([5]; Trypanosoma cruzi)
31.8 ± 4.3 µM,15.5 ± 5.8 µM,23.4 ± 3.4 µM,28.3 ± 11.7 µM,,,,COc1cc2c(cc1OC)[C@@H](Cc1ccc(Br)cc1)N(C)CC2 [(R)-9a],86.8 ± 2.9 µM,,,,
,3.3 ± 1.6 µM,13.1 ± 0.8 µM,72.3 ± 3 µM,,,,COc1cc2c(cc1OC)[C@@H](Cc1ccc(OC)c(OCc3ccccc3)c1)N(C)CC2 [(R)-9b],57.3 ± 3.3 µM,,,,
> 100 µM,3.5 ± 1.2 µM,> 150 µM,< 10 µM,8.5 ± 3.1 µM,,,COc1ccc(COc2ccc(C[C@@H]3c4cc(OC)c(OC)cc4CCN3C)cc2Br)cc1 [(R)-9c],13.4 ± 1.3 µM,,,,
6.2 ± 5.9 µM,1.1 ± 0.5 µM,< 10 µM,16.5 ± 6.1 µM,,9.4 ± 0.5 µM,,COc1cc2c(cc1OC)[C@@H](Cc1ccc(OCc3ccccc3)cc1)N(C)CC2 [(R)-9d],28.1 ± 0.5 µM,,,,
> 100 µM,4.8 ± 0.8 µM,> 150 µM,107 ± 1.8 µM,,,,"COc1cc2c(cc1OC)[C@@H](Cc1ccc(O)cc1)N(C)CC2 [(R)-10b, (–)-armepavine]",> 200 µM,,,,
> 100 µM,0.6 ± 0.1 µM,> 150 µM,6.5 ± 2.1 µM,,,,"COc1cc2c(cc1OC)[C@@H](Cc1ccc(OC)c(Oc3ccc(C[C@H]4c5cc(OC)c(OC)cc5CCN4C)cc3)c1)N(C)CC2 [(R,S)-11]",7.3 ± 0.7 µM,,,,

# The remaining lines, values behind:
Compound,IC50 [1],"IC50 ([2]; ± SD, MTT)","IC50 [4, 6]","IC50 [5, 7]","IC50 ([5]; ± SD, resazurin)","IC50 ([4]; ± SD, intracellular, peritoneal macrophages)","L. infantum IC50 promastigotes ([2]; ± SD, MTT)",CC50 at 96 h [3],IC50 [2],"CC50 at 96 h ([3]; ± SD, NCTC cells, MTT, 96 h, read-out: CC50)","IC50 ([4]; Leishmania infantum, Peritoneal macrophage)",IC50 ([5]; Trypanosoma cruzi)
"COc1ccc(C[C@@H]2c3cc(OC)c(OC)cc3CCN2C)cc1O [(R)-10a, (–)-laudanidine]",,,,,,,,,30.2 ± 4.8 µM,> 200 µM,> 150 µM,> 150 µM
"COc1cc2c(cc1OC)[C@@H](Cc1ccc(Oc3cc(C[C@@H]4c5cc(OC)c(OC)cc5CCN4C)ccc3OC)cc1)N(C)CC2 [(R,R)-11, (−)-O-methyldauricine]",1.5 ± 0.2 µM,0.7 ± 0.1 µM,> 150 µM,7.2 ± 0.6 µM,,,,11.4 ± 4.8 µM,,,,
"COc1ccc(COc2ccc(C[C@@H]3c4cc(OC)c(OC)cc4CCN3C)cc2Oc2ccc(C[C@@H]3c4cc(OC)c(OC)cc4CCN3C)cc2)cc1 [(R,R)-12]",> 100 µM,1.1 ± 0.5 µM,> 150 µM,7.3 ± 1.5 µM,,,,13.9 ± 1.6 µM,,,,
"COc1cc2c(cc1OC)[C@@H](Cc1ccc(Oc3cc(C[C@@H]4c5cc(OC)c(OC)cc5CCN4C)ccc3O)cc1)N(C)CC2 [(R,R)-13, (–)-dauricine]",> 100 µM,3.2 ± 1.1 µM,3.7 ± 0.6 µM,3.7 ± 2.9 µM,,,,7 ± 1 µM,,,,
"COc1ccc(COc2ccc(C[C@@H]3c4cc(OC)c(OC)cc4CCN3C)cc2Oc2ccc(C[C@H]3c4cc(OC)c(OC)cc4CCN3C)cc2)cc1 [(R,S)-12]",> 100 µM,0.4 ± 0.2 µM,> 150 µM,1.3 ± 0.7 µM,,,submicromolar,2.7 ± 1.6 µM,,,,
"COc1cc2c(cc1OC)[C@@H](Cc1ccc(Oc3cc(C[C@H]4c5cc(OC)c(OC)cc5CCN4C)ccc3O)cc1)N(C)CC2 [(R,S)-13]",2.8 ± 0.6 µM,3.2 ± 1.7 µM,> 150 µM,10.1 ± 3.9 µM,,,,13.3 ± 1.6 µM,,,,
"O=C(Cn1ccnc1[N+](=O)[O-])NCc1ccccc1 [benznidazole, reference compound]",5 ± 1.5 µM,,,12.8 ± 0.7 µM,,,,> 200 µM,,,,
"CCCCCCCCCCCCCCCCOP(=O)([O-])OCC[N+](C)(C)C [miltefosine, reference compound]",,,6.5 ± 3 µM,,,,,120 ± 4.2 µM,,,,
